Key:
[1] = test system: hIL-17 mRNA in human peripheral blood mononuclear cells; assay: Inhibition of hIL-17 mRNA transcription in OKT3-stimulated PBMC; format: cell-based; settings: OKT3 antibody, 6 h, read-out: IL-17 activity
Procedure: In this example, hIL-17 mRNA in human peripheral blood mononuclear cells were quantitated to measure the transcriptional inhibition of hIL-17 when treated with a compound of the present disclosure.
Human peripheral blood mononuclear cells were plated (2.0×10^5 cells per well) in a 96-well plate in 45 μL OpTimizer T Cell expansion media (Life Technologies) containing 20 ng/ml IL-2 and penicillin/streptomycin. The cells were treated with increasing concentrations of the test compound or DMSO (0.1%), and incubated at 37° C., 5% CO2 for 1 h before addition of 10× stock OKT3 antibody at 10 ug/ml in media. Triplicate wells were used for each concentration. Cells were incubated at 37° C., 5% CO2 for 6 h before the cells were harvested. At time of harvest, cells were pelleted by centrifugation at 800 rpm for 5 min. Cells were harvested using the mRNA Catcher PLUS kit according to manufacturer's instructions. The eluted mRNA was then used in a one-step quantitative real-time PCR reaction, using components of the RNA UltraSense™ One-Step Kit (Life Technologies) together with Applied Biosystems TaqMan® primer-probes for hIL-17 and Cyclophilin. Real-time PCR plates were run on a ViiA™7 real time PCR machine (Applied Biosystems), data was analyzed, normalizing the Ct values for hIL-17 to an internal control, prior to determining the fold induction of each unknown sample, relative to the control.

[2] = test system: Bcl2 and c-myc gene expression in MV4-11 and MM1.s tumors; assay: Evaluation of target engagement in xenograft tumors (PD biomarkers); format: in vivo, mouse; settings: oral dose, tumors harvested 3, 6, 12, 24 hrs post dose
Procedure: MV4-11 and MM1.s cells (ATCC) were grown under standard cell culture conditions and (NCr) nu/nu fisol strain of female mice age 6-7 weeks were injected with 5×10^6 cells/animal in 100 μL PBS+100 μL Matrigel in the lower left abdominal flank. By approximately day 28 after MV4-11 and MM1.s cells injection, mice were randomized based on tumor volume (L×W×H)/2) of average ˜500 mm^3. Mice were dosed orally with compound in EA006 formulation at 10 mL/kg body weight dose volume and tumors harvested 3, 6, 12, 24 hrs post dose for Bcl2 and c-myc gene expression analysis as PD biomarkers.

[3] = test system: hApoA-I mRNA in Huh7 cells; assay: Up-regulation of hApoA-1 mRNA transcription in Huh7 cells; format: cell-based, Human; settings: EC170, Huh7 cells, 48 h
Procedure: In this example, hApoA-I mRNA in tissue culture cells was quantitated to measure the transcriptional up-regulation of hApoA-I when treated with a compound of the present disclosure.
Huh7 cells (2.5×10^5 per well) were plated in a 96-well plate using 100 μL DMEM per well, (Gibco DMEM supplemented with penicillin/streptomycin and 10% FBS), 72 h before the addition of the compound. The cells are treated with increasing concentrations of the compound or DMSO (0.1%), and incubated at 37° C., 5% CO2 for 48 h. Spent media was removed from the Huh-7 cells and placed on ice for immediate use with the “LDH cytotoxicity assay Kit II” from Abcam. The cells remaining in the plate were rinsed with 100 μL PBS. Cells were harvested using the mRNA Catcher PLUS kit according to manufacturer's instructions. The eluted mRNA was then used in a one-step quantitative real-time PCR reaction, using components of the RNA UltraSense™ One-Step Kit (Life Technologies) together with Applied Biosystems TaqMan® primer-probes for hApoA-I and Cyclophilin. Real-time PCR plates were run on a ViiA™7 real time PCR machine (Applied Biosystems), data was analyzed, normalizing the Ct values for hApoA-1 to an internal control, prior to determining the fold induction of each unknown sample, relative to the control.

[4] = test system: MM1.s cells xenograft; assay: In vivo efficacy, multiple myeloma xenograft model using MM1.s cells; set-up: species or system mouse; settings: SCID-Beige mice, oral dosing, tumor growth inhibition
Procedure: MM1.s cells (ATCC) were grown under standard cell culture conditions and SCID-Beige strain of female mice age 6-7 weeks were injected with 10×10^6 cells/animal in 100 μL PBS+100 μL Matrigel in the lower left abdominal flank. By approximately day 21 after MM1.s cells injection, mice were randomized based on tumor volume (L×W×H)/2) of average ˜120 mm^3. Mice were dosed orally with compound at 25 to 90 mg/kg b.i.d and or q.d in EA006 formulation at 10 mL/kg body weight dose volume. Tumor measurements were taken with electronic micro calipers and body weights measured on alternate days beginning from dosing period. The average tumor volumes, percent Tumor Growth Inhibition (TGI) and % change in body weights were compared relative to Vehicle control animals. The means, statistical analysis and the comparison between groups were calculated using Student's t-test in Excel.

[5] = biological target: T1, Brd4 bromodomain 1 (BRD4(1)) (Homo sapiens, UniProt O60885); assay: Inhibition of tetra-acetylated histone H4 binding to Brd4 bromodomain 1 (HTRF/FRET); settings: tetra-acetylated histone H4 peptide, His-tagged bromodomain 200 nM, 2 h
T1 construct: made in house; host or cells: E. coli BL21(DE3)
How it was run: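 Inhibition was read as a drop in 665 nm relative to 620 nm HTRF signal after 2 h at room temperature, with IC50 from dose-response curves in duplicate wells. Reactions held 200 nM E. coli-expressed His-tagged bromodomain and 25-50 nM biotinylated tetra-acetylated histone H4 peptide. Buffer was 30 mM HEPES pH 7.4 with KF, CHAPS, BSA and 0.2% DMSO.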

IC50 [1]: ≤ 0.3 µM
IC50 [5]: ≤ 0.3 µM
Compound: Cc1noc(C)c1-c1cc(-c2c(C)nn(C)c2C)c2c(c1)[nH]c(=O)n2C [Example Compound 9, 5-(3,5-dimethylisoxazol-4-yl)-1-methyl-7-(1,3,5-trimethyl-1H-pyrazol-4-yl)-1H-benzo[d]imidazol-2(3H)-one]
In vivo activity [2]: Active
ApoA-1 activity [3]: +++ (EC170 value less than or equal to 0.3 μM were deemed to be highly active (+++))
In vivo activity [4]: Active
